Measured values reported in ChEMBL document CHEMBL4732109, “Structural modifications in the distal, regulatory region of histamine H receptor antagonists leading to the identification of a potent anti-obesity agent” (Eur J Med Chem, 2021).
The source made the active and inactive calls. The calls are words filed in the database; no cut-off is given here.

Columns and labels:
[1] = biological target: Histamine H1 receptor (Homo sapiens, UniProt P35367); test: Displacement of [3H]mepyramine from human H1R expressed in Sf9 cell membranes co-expressing RGS4 measured after 60 mins by scintillation counting analysis; design: species or system Membrane
[2] = biological target: Cytochrome P450 3A4 (Homo sapiens, UniProt P08684); test: Inhibition of recombinant CYP3A4 (unknown origin) at 10 uM measured after 30 mins by luciferase reporter gene assay; assay type: ADME; settings: recombinant enzyme, 0.5 h
[3] = biological target: T1, Histamine H3 receptor (Homo sapiens, UniProt Q9Y5N1); test: Displacement of [3H]UR-PI294 from human SP-FLAG-tagged H3R expressed in HEK293T cells measured after 60 to 120 mins by liquid scintillation counting analysis; assay type: cell-based
[4] = system: Rattus norvegicus; test: Anorectic activity in Wistar rat model of diet induced obesity assessed as reduction in amount of peritoneal fat at 10 mg/kg/day, ip administered for 28 days; assay type: functional, organism-based; settings: time 28.0 day
[5] = system: Rattus norvegicus; test: Anorectic activity in Wistar rat model of diet induced obesity assessed as reduction in body weight at 10 mg/kg/day, ip administered for 28 days; assay type: functional, organism-based; settings: time 28.0 day
[6] = system: Rattus norvegicus; test: Anorectic activity in Wistar rat model of diet induced obesity assessed as reduction in total cholesterol level at 10 mg/kg/day, ip administered for 28 days measured on day 29 by spectrophotometric method; assay type: functional, organism-based; settings: time 29.0 day
[7] = system: Rattus norvegicus; test: Anorectic activity in Wistar rat model of diet induced obesity assessed as reduction in plasma glucose level at 1 mg/kg/day, ip administered for 28 days measured on day 29 by spectrophotometric method; assay type: functional, organism-based; settings: time 28.0 day
[8] = system: Rattus norvegicus; test: Anorectic activity in Wistar rat model of diet induced obesity assessed as reduction in amount of peritoneal fat at 1 mg/kg/day, ip administered for 28 days; assay type: functional, organism-based; settings: time 28.0 day
[9] = system: Rattus norvegicus; test: Anorectic activity in Wistar rat model of diet induced obesity assessed as reduction in calorie intake at 10 mg/kg/day, ip administered for 28 days; assay type: functional, organism-based; settings: time 28.0 day
[10] = system: Rattus norvegicus; test: Anorectic activity in Wistar rat model of diet induced obesity assessed as reduction in triglyceride level at 1 to 10 mg/kg/day, ip administered for 28 days measured on day 29 by spectrophotometric method; assay type: functional, organism-based; settings: dose 1-10 mg/kg/day, time 28.0 day
[11] = system: Rattus norvegicus; test: Anorectic activity in Wistar rat model of diet induced obesity assessed as reduction in calorie intake at 1 mg/kg/day, ip administered for 28 days; assay type: functional, organism-based; settings: time 28.0 day
[12] = system: Rattus norvegicus; test: Anorectic activity in Wistar rat model of diet induced obesity assessed as reduction in plasma glucose level at 10 mg/kg/day, ip administered for 28 days measured on day 29 by spectrophotometric method; assay type: functional, organism-based; settings: time 29.0 day
[13] = system: Rattus norvegicus; test: Anorectic activity in Wistar rat model of diet induced obesity assessed as reduction in body weight at 1 mg/kg/day, ip administered for 28 days; assay type: functional, organism-based; settings: time 28.0 day
[14] = Effect on spontaneous locomotor activity in Wistar rat model of diet induced obesity at 1 to 10 mg/kg/day, ip administered for 27 days; assay type: ADME, organism-based; settings: in vivo, 648 h, dose 1-10 mg/kg/day, time 27 day
[15] = system: Rattus norvegicus; test: Anorectic activity in Wistar rat model of diet induced obesity assessed as increase in HDL level at 1 mg/kg/day, ip administered for 28 days measured on day 29 by spectrophotometric method; assay type: functional, organism-based; settings: time 28.0 day
[16] = system: Rattus norvegicus; test: Anorectic activity in Wistar rat model of diet induced obesity assessed as increase in HDL level at 10 mg/kg/day, ip administered for 28 days measured on day 29 by spectrophotometric method; assay type: functional, organism-based; settings: time 29.0 day
[17] = biological target: T1, Histamine H3 receptor; test: Binding affinity to human H3R
[18] = biological target: Histamine H4 receptor (Homo sapiens, UniProt Q9H3N8); test: Binding affinity to human H4R
[19] = system: Rattus norvegicus; test: Anorectic activity in Wistar rat model of diet induced obesity assessed as reduction in total cholesterol level at 1 mg/kg/day, ip administered for 28 days measured on day 29 by spectrophotometric method; assay type: functional, organism-based; settings: time 28.0 day
[20] = Effect on spontaneous locomotor activity in Wistar rat model of diet induced obesity at 1 mg/kg/day, ip administered for 27 days; assay type: ADME, organism-based; settings: in vivo, 648 h, time 27 day

Sequence of Cytochrome P450 3A4 (P08684 whole entry): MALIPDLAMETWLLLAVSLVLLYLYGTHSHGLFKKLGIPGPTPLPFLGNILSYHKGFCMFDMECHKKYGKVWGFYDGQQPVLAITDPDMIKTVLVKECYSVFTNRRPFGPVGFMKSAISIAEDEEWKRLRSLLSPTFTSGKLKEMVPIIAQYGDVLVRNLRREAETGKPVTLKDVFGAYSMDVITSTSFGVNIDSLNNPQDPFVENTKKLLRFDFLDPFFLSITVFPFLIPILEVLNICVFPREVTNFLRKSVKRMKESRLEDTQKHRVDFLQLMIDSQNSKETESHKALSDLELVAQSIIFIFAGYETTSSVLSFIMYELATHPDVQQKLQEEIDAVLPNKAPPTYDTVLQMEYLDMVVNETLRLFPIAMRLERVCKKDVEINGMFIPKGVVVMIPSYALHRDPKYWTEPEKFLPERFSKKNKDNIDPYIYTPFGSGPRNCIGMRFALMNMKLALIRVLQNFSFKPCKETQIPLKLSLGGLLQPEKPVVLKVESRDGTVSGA
T1 sequence (Q9Y5N1 whole entry): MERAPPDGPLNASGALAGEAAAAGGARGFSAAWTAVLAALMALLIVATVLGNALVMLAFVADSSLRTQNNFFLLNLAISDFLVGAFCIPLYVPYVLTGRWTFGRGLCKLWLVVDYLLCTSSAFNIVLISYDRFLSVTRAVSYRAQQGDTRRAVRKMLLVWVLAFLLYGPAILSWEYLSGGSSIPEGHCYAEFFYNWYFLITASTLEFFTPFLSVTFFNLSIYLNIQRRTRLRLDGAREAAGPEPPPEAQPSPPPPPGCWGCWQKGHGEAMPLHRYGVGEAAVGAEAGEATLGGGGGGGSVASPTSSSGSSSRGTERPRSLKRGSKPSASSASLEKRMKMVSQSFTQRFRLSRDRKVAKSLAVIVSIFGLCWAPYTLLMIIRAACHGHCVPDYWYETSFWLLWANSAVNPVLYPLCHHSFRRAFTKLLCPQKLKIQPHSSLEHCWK
Sequence of Histamine H1 receptor (P35367 whole entry): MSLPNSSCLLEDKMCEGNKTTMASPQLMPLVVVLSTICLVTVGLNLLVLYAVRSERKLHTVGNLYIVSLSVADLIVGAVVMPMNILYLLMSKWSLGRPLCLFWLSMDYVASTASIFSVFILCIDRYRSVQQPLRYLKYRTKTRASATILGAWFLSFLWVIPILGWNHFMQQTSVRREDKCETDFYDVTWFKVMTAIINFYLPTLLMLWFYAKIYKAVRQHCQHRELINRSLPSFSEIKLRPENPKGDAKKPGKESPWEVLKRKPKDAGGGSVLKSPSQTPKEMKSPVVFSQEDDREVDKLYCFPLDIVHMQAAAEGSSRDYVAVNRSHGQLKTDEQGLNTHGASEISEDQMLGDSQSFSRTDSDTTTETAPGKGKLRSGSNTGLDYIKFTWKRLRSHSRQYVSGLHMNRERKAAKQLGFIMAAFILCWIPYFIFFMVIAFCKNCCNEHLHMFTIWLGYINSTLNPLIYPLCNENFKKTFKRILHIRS

Ki [1] | inhibition (INH) [2] | Ki [3] | SMILES | other results
4220 nM | Active | 8.43 nM | c1ccc(Nc2ccc(OCCCN3CCN(c4ccncc4)CC3)cc2)cc1 | 
4090 nM | Active | 140 nM | Clc1ccc(-c2ccc(OCCCN3CCN(c4ccncc4)CC3)cc2)cc1 | 
1990 nM | Active | 109 nM | Clc1cccc(-c2ccc(OCCCN3CCN(c4ccncc4)CC3)cc2)c1 | 
3690 nM | Active | 60.7 nM | Fc1ccc(-c2ccc(OCCCN3CCN(c4ccncc4)CC3)cc2)cc1 | 
4570 nM | Active | 20.3 nM | c1ccc(Oc2ccc(OCCCN3CCN(c4ccncc4)CC3)cc2)cc1 | 
7420 nM | Active | 67.2 nM | c1ccc2cc(OCCCN3CCN(c4ccncc4)CC3)ccc2c1 | 
 |  |  | CN(C)[C@@H]1CCN(CCCOc2ccc(-c3ccc(C#N)cc3)cc2)C1 | Ki [17]: 2 nM
 |  |  | Clc1ccc(CCCOCCCN2CCCCC2)cc1 [PITOLISANT] | Ki [18]: > 100000 nM
 | Active |  | O=C(c1ccc(OCCCc2cnc[nH]2)cc1)C1CC1 [CIPROXIFAN] | 
4240 nM | Active | 17.6 nM | c1ccc(Cc2ccc(OCCCN3CCN(c4ccncc4)CC3)cc2)cc1 | 
 |  |  | Cc1c(C(=O)NN2CCCCC2)nn(-c2ccc(Cl)cc2Cl)c1-c1ccc(Cl)cc1 [RIMONABANT] | Activity [19]: Active; Activity [8]: Active; Activity [20]: Non-Toxic; Activity [15]: Active
 |  |  | CN(C)[C@@H]1CCN(CCCOc2ccc(-c3ccc(C#N)cc3)cc2F)C1 | Ki [17]: 3.98 nM

SMILES | Ki [1] | inhibition (INH) [2] | Ki [3] | other results
O=C(c1ccc(Cl)cc1)c1ccc(OCCCN2CCN(c3ccncc3)CC2)cc1 | 6860 nM | Active | 23 nM | 
N#Cc1ccc(-c2ccc(OCCCN3CCN(c4ccncc4)CC3)cc2)cc1 | 2900 nM | Active | 7.86 nM | Activity [4]: Active; Activity [5]: Active; Activity [6]: Active; Activity [7]: inactive; Activity [8]: Active; Activity [9]: Active; Activity [10]: Active; Activity [11]: Active; Activity [12]: Active; Activity [13]: Active; Activity [14]: Non-Toxic; Activity [15]: Active; Activity [16]: Active
O=C(c1ccc(F)cc1)c1ccc(OCCCN2CCN(c3ccncc3)CC2)cc1 | > 10000 nM | Active | 5.84 nM | 
O=C(c1ccc(OCCCN2CCN(c3ccncc3)CC2)cc1)C1CC1 | > 10000 nM | Active | 3.17 nM | 
O=C(c1ccc(OCCCN2CCC(c3ccncc3)CC2)cc1)C1CC1 | > 10000 nM | Active | 7.7 nM | 
